Assay results from ChEMBL document CHEMBL1153827, “Novel aminopeptidase N inhibitors derived from antineoplaston AS2-5 (Part II)” (Bioorg Med Chem, 2009).

Tests used:
[1] = target: 72 kDa type IV collagenase (Homo sapiens, UniProt P08253); experiment: Inhibition of MMP2
Aminopeptidase N = target: T1, Aminopeptidase N (Sus scrofa, UniProt P15145); experiment: Inhibition of pig kidney microsomal aminopeptidase N after 30 mins by UV-VIS spectrophotometry
T1 sequence (P15145 whole entry): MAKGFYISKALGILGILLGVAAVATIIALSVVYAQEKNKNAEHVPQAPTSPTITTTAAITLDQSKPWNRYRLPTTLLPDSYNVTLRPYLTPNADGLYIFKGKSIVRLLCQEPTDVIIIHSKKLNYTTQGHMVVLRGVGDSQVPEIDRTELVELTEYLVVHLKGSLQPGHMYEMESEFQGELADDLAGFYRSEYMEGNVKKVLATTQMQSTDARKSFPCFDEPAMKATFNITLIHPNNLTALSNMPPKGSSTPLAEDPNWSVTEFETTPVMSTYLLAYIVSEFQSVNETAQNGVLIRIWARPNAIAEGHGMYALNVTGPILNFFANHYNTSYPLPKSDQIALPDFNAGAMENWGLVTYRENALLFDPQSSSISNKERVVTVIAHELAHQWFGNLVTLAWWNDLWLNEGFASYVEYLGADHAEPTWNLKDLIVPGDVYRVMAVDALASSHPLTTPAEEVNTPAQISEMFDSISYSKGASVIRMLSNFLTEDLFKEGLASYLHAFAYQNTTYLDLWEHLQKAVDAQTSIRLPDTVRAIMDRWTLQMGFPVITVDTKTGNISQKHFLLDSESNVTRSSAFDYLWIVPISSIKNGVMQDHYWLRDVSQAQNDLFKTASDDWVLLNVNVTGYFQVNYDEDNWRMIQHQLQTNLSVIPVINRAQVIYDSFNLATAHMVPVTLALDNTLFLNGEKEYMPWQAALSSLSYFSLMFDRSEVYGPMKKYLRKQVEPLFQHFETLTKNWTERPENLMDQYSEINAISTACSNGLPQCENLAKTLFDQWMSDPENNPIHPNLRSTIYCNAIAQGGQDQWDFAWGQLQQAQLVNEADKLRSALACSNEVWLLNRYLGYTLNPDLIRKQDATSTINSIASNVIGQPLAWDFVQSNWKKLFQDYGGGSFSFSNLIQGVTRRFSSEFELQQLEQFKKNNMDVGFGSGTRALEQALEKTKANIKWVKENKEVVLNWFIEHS

Sequence of 72 kDa type IV collagenase (P08253 whole entry): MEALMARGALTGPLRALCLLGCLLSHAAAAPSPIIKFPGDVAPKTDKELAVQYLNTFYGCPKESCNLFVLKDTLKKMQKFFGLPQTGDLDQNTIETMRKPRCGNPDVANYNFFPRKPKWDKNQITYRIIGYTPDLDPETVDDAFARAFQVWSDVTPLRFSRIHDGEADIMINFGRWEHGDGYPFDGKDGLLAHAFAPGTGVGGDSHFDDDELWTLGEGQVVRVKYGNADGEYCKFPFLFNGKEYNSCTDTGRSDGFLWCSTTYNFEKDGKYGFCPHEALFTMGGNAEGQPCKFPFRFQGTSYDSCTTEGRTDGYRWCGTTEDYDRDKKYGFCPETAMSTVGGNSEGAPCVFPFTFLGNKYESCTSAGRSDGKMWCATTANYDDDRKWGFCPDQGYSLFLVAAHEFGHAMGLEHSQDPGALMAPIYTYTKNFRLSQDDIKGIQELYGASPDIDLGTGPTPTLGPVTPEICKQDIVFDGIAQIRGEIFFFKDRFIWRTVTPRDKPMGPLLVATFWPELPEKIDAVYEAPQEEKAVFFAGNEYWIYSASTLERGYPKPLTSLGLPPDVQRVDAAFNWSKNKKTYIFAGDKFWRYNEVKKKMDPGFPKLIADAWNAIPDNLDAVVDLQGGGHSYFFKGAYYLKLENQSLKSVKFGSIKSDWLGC

Row | IC50 ([1]; read-out: IC50) | IC50 (Aminopeptidase N; read-out: IC50) | IC50 [1] | IC50 (Aminopeptidase N) | SMILES
1 | 341 µM | 213 µM | – | – | COC(=O)CC(NC(=O)CC[C@H](NC(=O)/C=C/c1ccc(OC)c(OC)c1)C(=O)NC(CC(=O)OC)C(=O)OC)C(=O)OC (stereo not given in full)
2 | 116 µM | 98.6 µM | – | – | COc1ccc(/C=C/C(=O)N[C@@H](CCC(=O)O)C(=O)Nc2cc(F)cc(F)c2)cc1OC
3 | 71.4 µM | 56.8 µM | – | – | COc1ccc(/C=C/C(=O)N[C@@H](CCC(=O)O)C(=O)Nc2ccccc2F)cc1OC
4 | 64.3 µM | 38.3 µM | – | – | COc1ccc(/C=C/C(=O)N[C@@H](CCC(=O)O)C(=O)Nc2ccccc2Cl)cc1OC
5 | 121 µM | 80.5 µM | – | – | COc1ccc(/C=C/C(=O)N[C@@H](CCC(=O)O)C(=O)Nc2cccc(Cl)c2)cc1OC
6 | 37.8 µM | 20.7 µM | – | – | COc1ccc(/C=C/C(=O)N[C@@H](CCC(=O)O)C(=O)Nc2ccc(C)cc2)cc1OC
7 | 47.6 µM | 23.4 µM | – | – | COc1ccc(/C=C/C(=O)N[C@@H](CCC(=O)O)C(=O)Nc2ccc(F)cc2)cc1OC
8 | – | – | Not Active | Not Active | COc1ccc(/C=C/C(=O)N[C@@H](CCC(=O)Nc2cc(F)cc(F)c2)C(=O)Nc2cc(F)cc(F)c2)cc1OC
9 | 398 µM | 335 µM | – | – | COc1ccc(/C=C/C(=O)N[C@@H](CCC(=O)Nc2ccc(C)cc2)C(=O)Nc2ccc(C)cc2)cc1OC
10 | 368 µM | 371 µM | – | – | COc1ccc(/C=C/C(=O)N[C@@H](CCC(=O)Nc2ccc(F)cc2)C(=O)Nc2ccc(F)cc2)cc1OC
11 | 79.6 µM | 50.4 µM | – | – | COC(=O)CNC(=O)[C@H](CCC(=O)O)NC(=O)/C=C/c1ccc(OC)c(OC)c1
12 | 83.2 µM | 55.1 µM | – | – | COC(=O)C(C)NC(=O)[C@H](CCC(=O)O)NC(=O)/C=C/c1ccc(OC)c(OC)c1 (stereo not given in full)
13 | 256 µM | 207 µM | – | – | COc1ccc(/C=C/C(=O)N[C@@H](CCC(=O)O)C(=O)NCC(C)C)cc1OC
14 | 471 µM | 405 µM | – | – | COc1ccc(/C=C/C(=O)N[C@@H](CCC(=O)Nc2ccc(Cl)cc2)C(=O)Nc2ccc(Cl)cc2)cc1OC
15 | – | 578 µM | Not Active | – | COc1ccc(/C=C/C(=O)N[C@@H](CCC(=O)Nc2ccc(Br)cc2)C(=O)Nc2ccc(Br)cc2)cc1OC
16 | 471 µM | 405 µM | – | – | COc1ccc(/C=C/C(=O)N[C@@H](CCC(=O)Nc2ccccc2F)C(=O)Nc2ccccc2F)cc1OC
17 | 236 µM | 178 µM | – | – | COc1ccc(/C=C/C(=O)N[C@@H](CCC(=O)O)C(=O)NCc2ccccc2)cc1OC
18 | 159 µM | 126 µM | – | – | CNC(=O)[C@H](CCC(=O)O)NC(=O)/C=C/c1ccc(OC)c(OC)c1
19 | 211 µM | 184 µM | – | – | CCNC(=O)[C@H](CCC(=O)O)NC(=O)/C=C/c1ccc(OC)c(OC)c1
20 | 284 µM | 237 µM | – | – | CCCNC(=O)[C@H](CCC(=O)O)NC(=O)/C=C/c1ccc(OC)c(OC)c1
21 | 76.8 µM | 69.2 µM | – | – | COC(=O)C(NC(=O)[C@H](CCC(=O)O)NC(=O)/C=C/c1ccc(OC)c(OC)c1)C(C)C (stereo not given in full)
22 | 71.2 µM | 58.1 µM | – | – | COc1ccc(/C=C/C(=O)N[C@@H](CCC(=O)O)C(=O)Nc2ccc(Br)cc2)cc1OC
23 | 59.9 µM | 34.5 µM | – | – | COc1ccc(/C=C/C(=O)N[C@@H](CCC(=O)O)C(=O)Nc2ccc(Cl)cc2)cc1OC
24 | 101 µM | 60.5 µM | – | – | COC(=O)CC(NC(=O)[C@H](CCC(=O)O)NC(=O)/C=C/c1ccc(OC)c(OC)c1)C(=O)OC (stereo not given in full)
25 | 76.5 µM | 43.7 µM | – | – | COC(=O)C(Cc1ccc(F)cc1)NC(=O)[C@H](CCC(=O)O)NC(=O)/C=C/c1ccc(OC)c(OC)c1 (stereo not given in full)
